Source: patent US20160257697A1, “THIOPHENE-SUBSTITUTED TETRACYCLIC COMPOUNDS AND METHODS OFUSE THEREOF FOR THE TREATMENT OF VIRAL DISEASES” (priority 2013, published 2016)
Like-named read-outs stand apart in the source and are kept apart here.

Experiments:
Assay in all cases: microbe, parasite or virus in culture
Assay type in all cases: cell-based, Hepatitis C virus (HCV)
Conditions in all cases: Replicon Assay A
HCV replicon 1AY93H = tested on: HCV replicon 1AY93H
Summary of the method: (§1)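 Replicon cells incubated with compound for 3 days in medium with 5% FBS and 0.5% DMSO final. Replicon RNA measured in lysates by multiplex real-time RT-PCR (Neo set) against cyclophilin control, quantified from standard curves of Ct versus log ng replicon total RNA.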

HCV replicon 2B = tested on: HCV replicon 2B
Summary of the method: as §1

HCV replicon 1A = tested on: HCV replicon 1A
Summary of the method: as §1

[1] = read-out: 1A Y93H IC50, HCV replicon 1A Y93H
[2] = read-out: 2B IC50, HCV replicon 2B
[3] = read-out: 1A Y93H IC50, replicon 1AY93H
[4] = Hepatitis C virus, read-out: 1A Y93H IC50 (nM), replicon 1AY93H
[5] = Hepatitis C virus, read-out: 2B IC50 (nM), replicon 2B

Row | Compound | IC50 (HCV replicon 1AY93H; [1]) [nM] | IC50 (HCV replicon 2B; [2]) [nM] | IC50 (HCV replicon 1AY93H; [3]) [nM] | IC50 (HCV replicon 2B; read-out: 2B IC50, replicon 2B) [nM] | IC50 (HCV replicon 1A; replicon 1A) [nM] | further results
1 | COC(=O)N[C@H](C(=O)N1CCC[C@H]1c1ncc(-c2cc(F)c3c(c2)OC(c2scc4c2OCCO4)n2c-3cc3cc(-c4cnc([C@@H]5C[C@H](F)CN5C(=O)[C@@H](NC(=O)OC)C(C)C)[nH]4)ccc32)[nH]1)C(C)C (single isomer, unassigned) [Compound 527] | 3.06 | 33.3 | – | – | – | IC50 (HCV replicon 1A; HCV replicon 1A): 0.0155 nM
2 | COC(=O)N[C@H](C(=O)N1CCC[C@H]1c1ncc(-c2ccc3c(c2)OC(c2ccc(C4CC4)s2)n2c-3c(C)c3cc(-c4cnc([C@@H]5CCCN5C(=O)[C@@H](NC(=O)OC)C(C)C)[nH]4)ccc32)[nH]1)C(C)C (single isomer, unassigned) [Compound 22] | – | – | 1.38 | 1.84 | 0.002 | –
3 | COC(=O)N[C@H](C(=O)N1CCC[C@H]1c1ncc(-c2cc(F)c3c(c2)OC(c2csc4ccccc24)n2c-3cc3cc(-c4cnc([C@@H]5CCCN5C(=O)[C@@H](NC(=O)OC)C(C)C)[nH]4)ccc32)[nH]1)C(C)C (single isomer, unassigned) [Compound 323] | – | – | – | – | – | IC50 (HCV replicon 1AY93H; [4]): 2.51 nM; IC50 (HCV replicon 2B; [5]): 15.8 nM; IC50 (HCV replicon 1A; Hepatitis C virus, replicon 1A): 0.0021 nM
4 | COC(=O)N[C@@H](Cc1ccccc1)C(=O)N1CCC[C@H]1c1ncc(-c2ccc3c(c2)OC(c2ccc(-c4ccc(NC(=O)CCCC[C@@H]5SC[C@@H]6NC(=O)N[C@@H]65)cc4)s2)n2c-3cc3cc(-c4cnc([C@@H]5CCCN5C(=O)[C@H](Cc5ccccc5)NC(=O)OC)[nH]4)ccc32)[nH]1 (single isomer, unassigned) [Compound 385] | – | – | 3.11 | 7.21 | 0.109 | –
5 | COC(=O)NC(C(=O)N1[C@@H]2C[C@@H]2C[C@H]1c1ncc(-c2ccc3c(c2)c(F)c2n3C(c3ccc(C4CC4)s3)Oc3cc(-c4cnc([C@@H]5CCCN5C(=O)[C@@H](NC(=O)OC)C(C)C)[nH]4)ccc3-2)[nH]1)C1C[C@@H](C)O[C@@H](C)C1 (single isomer, unassigned) [Compound 643] | 0.179 | 0.323 | – | – | – | IC50 (HCV replicon 1A; HCV replicon 1A): 0.0012 nM
6 | [2H]C(C)(C)C(NC(=O)OC)C(=O)N1CCC[C@H]1c1ncc(-c2cc(F)c3c(c2)OC(c2ccc(C4CC4)s2)n2c-3cc3cc(-c4cnc([C@@H]5CCCN5C(=O)[C@@H](NC(=O)OC)C(C)C)[nH]4)ccc32)[nH]1 (single isomer, unassigned) [Compound 31] | – | – | 0.02 | 0.083 | 0.002 | –
7 | [2H]C(C)(C)C(NC(=O)OC)C(=O)N1CCC[C@H]1c1ncc(-c2cc(F)c3c(c2)OC(c2ccc(C4CC4)s2)n2c-3cc3cc(-c4cnc([C@@H]5CCCN5C(=O)[C@@H](NC(=O)OC)C(C)C)[nH]4)ccc32)[nH]1 (single isomer, unassigned) [Compound 29] | – | – | 1.32 | 1.98 | 0.0024 | –
8 | CCc1ccc(C2Oc3cc(-c4cnc([C@@H]5CCCN5C(=O)[C@@H](NC(=O)OC)C(C)C)[nH]4)ccc3-c3c(F)c4cc(-c5cnc([C@@H]6CCCN6C(=O)C(NC(=O)OC)C6C[C@@H](C)O[C@@H](C)C6)[nH]5)ccc4n32)s1 (single isomer, unassigned) [Compound 633] | 0.306 | 0.311 | – | – | – | IC50 (HCV replicon 1A; Hepatitis C virus, HCV replicon 1A): 0.0013 nM
9 | CCc1ccc(C2Oc3cc(-c4cnc([C@@H]5C[C@H]6C[C@H]6N5C(=O)[C@@H](NC(=O)OC)C(C)C)[nH]4)cc(F)c3-c3cc4cc(-c5cnc([C@@H]6C[C@H]7C[C@H]7N6C(=O)[C@@H](NC(=O)OC)C(C)C)[nH]5)ccc4n32)s1 (single isomer, unassigned) [Compound 50] | – | – | – | – | – | IC50 (HCV replicon 1AY93H; [4]): 0.0284 nM; IC50 (HCV replicon 2B; [5]): 1.39 nM; IC50 (HCV replicon 1A; Hepatitis C virus, replicon 1A): 0.0014 nM
10 | CCc1ccc(C2Oc3cc(-c4cnc([C@@H]5CCCN5C(=O)C(NC(=O)OC)C5C[C@@H](C)O[C@@H](C)C5)[nH]4)cc(F)c3-c3cc4cc(-c5cnc([C@@H]6CCCN6C(=O)[C@@H](NC(=O)OC)C(C)C)[nH]5)ccc4n32)s1 (single isomer, unassigned) [Compound 154] | – | – | 0.36 | 0.55 | 0.0017 | –
